Experimental data as given in patent publication US6737383B1, “Herbicidal oxadiazolidines” (priority 1999, dated 2004).

How the values were obtained:
[1] = test system: bedstraw; assay: Test B pre/postemergence bedstraw; format: in vivo, Galium aparine; details: Preemergence; for Bedstraw plant response rating: scale 0 to 10, 0 is no effect, 10 is complete control
In short: (§1)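 Herbicidal effect was estimated by eye on a ten-point control scale after plants spent twelve to sixteen days in a greenhouse following soil or foliar treatment. Foliar sprays targeted plants at one to four leaves; all doses were formulated in a non-phytotoxic solvent with surfactant.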

[2] = test system: blackgrass; assay: Test B pre/postemergence blackgrass; format: in vivo, Alopecurus myosuroides
In short: as §1

[3] = test system: surinam grass; assay: Test B pre/postemergence surinam grass; format: in vivo, Brachiaria decumbens
In short: as §1

[4] = test system: cocklebur; assay: Test B pre/postemergence cocklebur; format: in vivo, Xanthium strumarium
In short: as §1

[5] = test system: corn; assay: Test B pre/postemergence corn; format: in vivo, Zea mays
In short: as §1

[6] = test system: crabgrass; assay: Test B pre/postemergence crabgrass; format: in vivo, Digitaria sanguinalis
In short: as §1

[7] = test system: giant foxtail; assay: Test B pre/postemergence giant foxtail; format: in vivo, Setaria faberii
In short: as §1

[8] = test system: morningglory; assay: Test B pre/postemergence morningglory; format: in vivo, Ipomoea hederacea
In short: as §1

[9] = test system: pigweed; assay: Test B pre/postemergence pigweed; format: in vivo, Amaranthus retroflexus
In short: as §1

[10] = test system: rape; assay: Test B pre/postemergence rape; format: in vivo, Brassica napus
In short: as §1

[11] = test system: soybean; assay: Test B pre/postemergence soybean; format: in vivo, Glycine max
In short: as §1

[12] = test system: sugar beet; assay: Test B pre/postemergence sugar beet; format: in vivo, Beta vulgaris
In short: as §1

[13] = test system: velvetleaf; assay: Test B pre/postemergence velvetleaf; format: in vivo, Abutilon theophrasti
In short: as §1

[14] = test system: wheat; assay: Test B pre/postemergence wheat; format: in vivo, Triticum aestivum
In short: as §1

[15] = test system: wild oat; assay: Test B pre/postemergence wild oat; format: in vivo, Avena fatua
In short: as §1

[16] = test system: purple nutsedge; assay: Test B pre/postemergence purple nutsedge; format: in vivo, Cyperus rotundus
In short: as §1

[17] = test system: rice; assay: Test B flood test rice; format: in vivo, Oryza sativa
In short: (§2)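 Each value is a visual injury score relative to controls, with 10 meaning complete control and 0 no effect. Evaluation took place twelve to sixteen days after the 2-leaf-stage plants were treated and kept in the greenhouse.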

[18] = test system: smallflower flatsedge; assay: Test B flood test smallflower flatsedge; format: in vivo, Cyperus difformis
In short: as §2

[19] = test system: duck salad; assay: Test B flood test duck salad; format: in vivo, Heteranthera limosa
In short: as §2

[20] = test system: bamyardgrass; assay: Test B flood test barnyardgrass; format: in vivo, Echinochloa crus-galli
In short: as §2

[21] = Postemergence, Rate 62 g/ha, scale of 0 to 10, 0 is no effect, 10 is complete control
[22] = Postemergence, Rate 125 g/ha, scale 0 to 10, 0 is no effect, 10 is complete control
[23] = Postemergence, Rate 250 g/ha, scale 0 to 10
[24] = Postemergence, Rate 500 g/ha, scale 0 to 10, 0 is no effect, 10 is complete control
[25] = Preemergence, Rate 62 g/ha, scale of 0 to 10 where 0 is no effect and 10 is complete control
[26] = Preemergence, Rate 125 g/ha, scale 0 to 10, 0 is no effect, 10 is complete control
[27] = Preemergence, Rate 250 g/ha, scale 0 to 10, 0 is no effect, 10 is complete control
[28] = Preemergence, Rate 500 g/ha, scale of 0 to 10 where 0 is no effect and 10 is complete control
[29] = Rate 62 g/ha, flood test species, Pre-emergence, visual evaluation after twelve to sixteen days
[30] = Rate 125 g/ha, under heading Pre-emergence, flood test species, visual evaluation after twelve to sixteen days
[31] = Rate 250 g/ha, Pre-emergence (flood test species), scale 0 to 10, 0 is no effect, 10 is complete control
[32] = Rate 500 g/ha, Pre-emergence section of Table B, 0 to 10 scale (0 no effect, 10 complete control)

CCc1nc(C)c(Cn2c(=O)on(C(=O)N(c3ccc(Cl)cc3)C(C)C)c2=O)s1 [Compound 499]
Plant response rating, Bedstraw ([1]; Rate 62 g/ha, scale of 0 to 10 where 0 is no effect and 10 is complete control): 0
Bedstraw plant response rating ([1]; Rate 125 g/ha): 0
Bedstraw plant response rating ([1]; Rate 250 g/ha): 0
Blackgrass plant response rating [2, 21]: 0
Blackgrass plant response rating [2, 22]: 0
Blackgrass plant response rating [2, 23]: 2
Plant response rating, Blackgrass [2, 24]: 4
Plant response rating, Blackgrass [2, 25]: 0
Blackgrass plant response rating [2, 26]: 0
Blackgrass plant response rating [2, 27]: 0
Blackgrass plant response rating [2, 28]: 1
B. signalgrass plant response rating [3, 21]: 0
B. signalgrass plant response rating [3, 22]: 0
B. signalgrass plant response rating ([3]; Postemergence, Rate 250 g/ha, scale 0 to 10, 0 no effect, 10 complete control): 0
Plant response rating, B. signalgrass [3, 24]: 0
Plant response rating, B. signalgrass [3, 25]: 0
B. signalgrass plant response rating [3, 26]: 0
B. signalgrass plant response rating [3, 27]: 0
B. signalgrass plant response rating ([3]; Preemergence, Rate 500 g/ha, scale 0 to 10, 0 is no effect, 10 is complete control): 2
Cocklebur plant response rating [4, 21]: 0
Cocklebur plant response rating [4, 22]: 0
Cocklebur plant response rating [4, 23]: 2
Plant response rating, Cocklebur [4, 24]: 4
Cocklebur plant response rating [4, 26]: 0
Cocklebur plant response rating [4, 27]: 0
Cocklebur plant response rating [4, 28]: 4
Corn plant response rating [5, 21]: 0
Corn plant response rating [5, 22]: 0
Corn plant response rating [5, 23]: 0
Plant response rating, Corn [5, 24]: 0
Plant response rating, Corn [5, 25]: 0
Corn plant response rating [5, 26]: 0
Corn plant response rating [5, 28]: 0
Crabgrass plant response rating [6, 21]: 0
Crabgrass plant response rating [6, 22]: 0
Crabgrass plant response rating [6, 23]: 0
Plant response rating, Crabgrass [6, 24]: 0
Plant response rating, Crabgrass [6, 25]: 4
Crabgrass plant response rating [6, 26]: 6
Crabgrass plant response rating [6, 28]: 8
Giant foxtail plant response rating [7, 21]: 0
Giant foxtail plant response rating [7, 22]: 0
Plant response rating, Giant foxtail [7, 24]: 2
Plant response rating, Giant foxtail [7, 25]: 3
Giant foxtail plant response rating [7, 26]: 5
Giant foxtail plant response rating [7, 28]: 10
Morningglory plant response rating [8, 21]: 3
Morningglory plant response rating [8, 22]: 3
Plant response rating, Morningglory [8, 24]: 6
Plant response rating, Morningglory [8, 25]: 0
Morningglory plant response rating [8, 26]: 0
Morningglory plant response rating [8, 28]: 0
Redroot pigweed plant response rating [9, 21]: 0
Redroot pigweed plant response rating [9, 22]: 0
Plant response rating, Redroot pigweed [9, 24]: 0
Plant response rating, Redroot pigweed [9, 25]: 0
Redroot pigweed plant response rating [9, 26]: 0
Redroot pigweed plant response rating [9, 28]: 0
Rape plant response rating [10, 21]: 0
Rape plant response rating [10, 22]: 0
Plant response rating, Rape [10, 24]: 0
Plant response rating, Rape [10, 25]: 0
Rape plant response rating [10, 26]: 0
Rape plant response rating [10, 28]: 0
Soybean plant response rating [11, 21]: 0
Soybean plant response rating [11, 22]: 1
Plant response rating, Soybean [11, 24]: 3
Plant response rating, Soybean [11, 25]: 0
Soybean plant response rating [11, 26]: 0
Soybean plant response rating [11, 28]: 0
Sugarbeets plant response rating [12, 21]: 0
Sugarbeets plant response rating [12, 22]: 0
Plant response rating, Sugarbeets [12, 24]: 0
Plant response rating, Sugarbeets [12, 25]: 0
Sugarbeets plant response rating [12, 26]: 0
Sugarbeets plant response rating [12, 28]: 0
Velvetleaf plant response rating [13, 21]: 0
Velvetleaf plant response rating [13, 22]: 0
Plant response rating, Velvetleaf [13, 24]: 0
Plant response rating, Velvetleaf [13, 25]: 0
Velvetleaf plant response rating [13, 26]: 0
Velvetleaf plant response rating [13, 28]: 0
Wheat plant response rating [14, 21]: 0
Wheat plant response rating [14, 22]: 0
Plant response rating, Wheat [14, 24]: 0
Plant response rating, Wheat [14, 25]: 0
Wheat plant response rating [14, 26]: 0
Wheat plant response rating [14, 28]: 0
Wild oats plant response rating [15, 21]: 0
Wild oats plant response rating [15, 22]: 0
Plant response rating, Wild oats [15, 24]: 0
Plant response rating, Wild oats [15, 25]: 0
Wild oats plant response rating [15, 26]: 0
Wild oats plant response rating [15, 28]: 0
Nutsedge plant response rating [16, 21]: 0
Nutsedge plant response rating [16, 22]: 0
Plant response rating, Nutsedge [16, 24]: 0
Nutsedge plant response rating [16, 26]: 0
Nutsedge plant response rating [16, 28]: 0
Plant response rating, Rice (0 to 10 scale, 0 is no effect, 10 is complete control) [17, 29]: 0
Rice plant response rating (0 to 10 scale, 0 is no effect, 10 is complete control) [17, 30]: 0
Rice plant response rating [17, 31]: 0
Rice plant response rating [17, 32]: 0
Plant response rating, S. Flatsedge (0 to 10 scale, 0 is no effect, 10 is complete control) [18, 29]: 0
S. Flatsedge plant response rating (0 to 10 scale, 0 is no effect, 10 is complete control) [18, 30]: 0
S. Flatsedge plant response rating [18, 31]: 0
S. Flatsedge plant response rating [18, 32]: 0
Plant response rating, Ducksalad (0 to 10 scale, 0 is no effect, 10 is complete control) [19, 29]: 0
Ducksalad plant response rating (0 to 10 scale, 0 is no effect, 10 is complete control) [19, 30]: 0
Ducksalad plant response rating [19, 31]: 0
Ducksalad plant response rating [19, 32]: 0
Plant response rating, Barnyardgrass (0 to 10 scale, 0 is no effect, 10 is complete control) [20, 29]: 0
Barnyardgrass plant response rating (0 to 10 scale, 0 is no effect, 10 is complete control) [20, 30]: 0
Barnyardgrass plant response rating [20, 31]: 0
Barnyardgrass plant response rating [20, 32]: 0
